Measurements: patent US9193697B2, “Oxazole derivatives useful as modulators of FAAH” (MERCK SHARP & DOHME CORP., priority 2010, dated 2015)

target: human FAAH (Fatty Acid Amide Hydrolase) (Homo sapiens (Human), UniProt O00519); experiment: FAAH inhibition, human FAAH CHO whole cell format; type: cell-based
From the text: To assist in assay development stable cell lines for human, murine and rat full length FAAH were developed. […] The full length FAAH was subcloned into the mammalian expression vector, pcDEF.neo, using XbaI and EcoRI restriction sites and used for stable cell line generation.
The full length murine FAAH was subcloned into the mammalian expression vector, pcDEFneo using either EcoRI (murine) or KpnI and EcoRI (rat) restriction sites. Chinese hamster ovary cells (CHO) were transfected following manufacturers protocol (AMAXA). Forty eight hours post transfection, cells were trypsinized and transferred to 96 well plates in Iscove's DMEM media supplemented with 2 mM Glutamine, 10% fetal calf serum, 1 mg/ml geneticin and HT Supplement (0.1 mM sodium hypoxanthine, 0.016 mM thymidine) in order to isolate single clones. […] Following removal of tissue culture media cells were dislodged following addition of Cellstripper (Mediatech, Inc. Manassas, Va.) and transferred to 96 well black clear bottom assay plate, centrifuged at 1,000 rpm for 3 mins and media removed and replaced with assay buffer (50 mM Tris pH8.0, 1 mM EDTA, 0.1% fatty acid free BSA). The reaction was initiated by addition of fluorescent substrate, AMC Arachidonoyl Amide (Cayman Chemical, Ann Arbor, Mich.) to 1 μM and reaction allowed to proceed for 2 hours at room temperature. Release of fluorescence was monitored in a CytoFluor Multiplate Reader.
Assays are performed on either cell lysate or microsome fractions prepared as described or in whole cell format employing either the fluorescent substrate AAMCA (Cayman chemical, Ann Arbor, Mich.,) or ^3H-anandamide ([ETHANOLAMINE-1-3H] American Radiolabeled Chemicals; 1 mCi/ml). […] AAMCA substrate was used to achieve a final concentration of 1 μM and reaction allowed to proceed at room temperature for 1-3 hours. […] Whole cell assay is conducted with cells harvested after rinsing tissue culture flasks three times with Ca^++Mg^++ free PBS, incubating for 10 min in Enzyme free dissociation media and centrifuging for 5 minutes at 1,000 rpm in table top centrifuge. Cells are resuspended in assay buffer at desired cell number in (4×10^4 cells/assay in 96-well format; 1×10^4 cells/assay in 384-well format) and assayed as described.

Sequence of human FAAH (Fatty Acid Amide Hydrolase) (O00519 whole entry): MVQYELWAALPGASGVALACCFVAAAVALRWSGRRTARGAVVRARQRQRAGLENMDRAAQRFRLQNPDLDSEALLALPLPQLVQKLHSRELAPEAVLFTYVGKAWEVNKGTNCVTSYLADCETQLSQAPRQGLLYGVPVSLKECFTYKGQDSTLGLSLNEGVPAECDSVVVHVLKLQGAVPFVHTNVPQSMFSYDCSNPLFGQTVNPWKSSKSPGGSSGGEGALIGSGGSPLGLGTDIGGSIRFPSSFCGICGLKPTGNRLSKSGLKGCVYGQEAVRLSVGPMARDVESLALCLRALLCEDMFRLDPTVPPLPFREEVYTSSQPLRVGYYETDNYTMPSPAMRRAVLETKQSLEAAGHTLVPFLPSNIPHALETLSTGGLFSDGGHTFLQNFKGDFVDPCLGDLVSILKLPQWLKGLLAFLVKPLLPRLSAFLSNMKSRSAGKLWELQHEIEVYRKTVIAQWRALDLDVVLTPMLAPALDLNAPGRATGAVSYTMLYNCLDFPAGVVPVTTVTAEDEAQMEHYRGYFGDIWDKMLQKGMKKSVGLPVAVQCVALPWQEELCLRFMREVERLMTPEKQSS

SMILES | IC50 [µM]
CC(C)(O)c1ccc(-c2nc(C3CCOCC3)oc2Sc2ccc(C3CC3)cn2)cn1 [Example A7.6, 2-(5-{5-{(5-cyclopropylpyridin-2-yl)sulfanyl]-2-(tetrahydro-2H-pyran-4-yl)-1,3-oxazol-4-yl}pyridin-2-yl)propan-2-ol] | 4.14
CC(C)(O)c1ccc(-c2nc(C3CCOCC3)oc2Sc2ccc(OC(F)F)cn2)cn1 [Example A7.7, 2-{5-[5-{[5-(difluoromethoxy)pyridin-2-yl]sulfanyl}-2-(tetrahydro-2H-pyran-4-yl)-1,3-oxazol-4-yl]pyridin-2-yl}propan-2-ol] | 2.21
CN1CCN(CCOC(=O)N2CCC(c3nc(-c4ccc([S+](C)[O-])cc4)c(Sc4ccc(Cl)cn4)o3)CC2)CC1 (stereo not shown) [Example A7.28, 2-(4-methylpiperazin-1-yl)ethyl 4-{5-[(5-chloropyridin-2-yl)sulfanyl]-4-[4-(methylsulfinyl)phenyl]-1,3-oxazol-2-yl}piperidine-1-carboxylate] | ≥ 10
COC(=O)N1CCC(c2nc(C3CCOCC3)oc2Sc2ccc(Cl)cn2)CC1 [Example A7.32, methyl 4-{5-[(5-chloropyridin-2-yl)sulfanyl]-2-(tetrahydro-2H-pyran-4-yl)-1,3-oxazol-4-yl}piperidine-1-carboxylate] | 0.142
CC(=O)N1CCC(c2nc(C3CCOCC3)oc2Sc2ccc(Cl)cn2)CC1 [Example A7.33, 1-(4-{5-[(5-chloropyridin-2-yl)sulfanyl]-2-(tetrahydro-2H-pyran-4-yl)-1,3-oxazol-4-yl}piperidin-1-yl)ethanone] | 1.81
CCOC(=O)N1CCC(c2nc(C3CCOCC3)oc2Sc2ccc(Cl)cn2)CC1 [Example A7.34, ethyl 4-{5-[(5-chloropyridin-2-yl)sulfanyl}-2-(tetrahydro-2H-pyran-4-yl)-1,3-oxazol-4-yl}piperidine-1-carboxylate] | 0.15
O=C(OCc1ccccc1)N1CCC(c2nc(C3CCOCC3)oc2Sc2ccc(Cl)cn2)CC1 [Example A7.35, benzyl 4-{5-[(5-chloropyridin-2-yl)sulfanyl]-2-(tetrahydro-2H-pyran-4-yl)-1,3-oxazol-4-yl}piperidine-1-carboxylate] | ≥ 10
CC(C)COC(=O)N1CCC(c2nc(C3CCOCC3)oc2Sc2ccc(Cl)cn2)CC1 [Example A7.36, 2-methylpropyl 4-{5-[(5-chloropyridin-2-yl)sulfanyl]-2-(tetrahydro-2H-pyran-4-yl)-1,3-oxazol-4-yl}piperidine-1-carboxylate] | ≥ 10
CC(C)OC(=O)N1CCC(c2nc(C3CCOCC3)oc2Sc2ccc(Cl)cn2)CC1 [Example A7.37, propan-2-yl 4-{5-[(5-chloropyridin-2-yl)sulfanyl]-2-(tetrahydro-2H-pyran-4-yl)-1,3-oxazol-4-yl}piperidine-1-carboxylate] | 1.92
COCCOC(=O)N1CCC(c2nc(C3CCOCC3)oc2Sc2ccc(Cl)cn2)CC1 [Example A7.38] | ≥ 10
COc1ccc(OC(=O)N2CCC(c3nc(C4CCOCC4)oc3Sc3ccc(Cl)cn3)CC2)cc1 [Example A7.39, 4-methoxyphenyl 4-{5-[(5-chloropyridin-2-yl)sulfanyl]-2-(tetrahydro-2H-pyran-4-yl)-1,3-oxazol-4-yl}piperidine-1-carboxylate] | 2.81
CCNC(=O)N1CCC(c2nc(C3CCOCC3)oc2Sc2ccc(Cl)cn2)CC1 [Example A7.40, 4-{5-[(5-chloropyridin-2-yl)sulfanyl]-2-(tetrahydro-2H-pyran-4-yl)-1,3-oxazol-4-yl}-N-ethylpiperidine-1-carboxamide] | 9.7
C[N+]1(C)CCN(c2ccc(-c3nc(C4CCOCC4)oc3Sc3ccc(Cl)cc3)cn2)CC1 [Example B5.14, 4-(5-{5-[(4-chlorophenyl)sulfanyl]-2-(tetrahydro-2H-pyran-4-yl)-1,3-oxazol-4-yl}pyridin-2-yl)-1,1-dimethylpiperazin-1-ium] | ≥ 10
CC(c1ccc(-c2nc(C3CCOCC3)oc2Sc2ccc(Cl)cc2)cc1)N1CCOCC1 (stereo not shown) [Example B5.17, 4-[1-(4-{5-[(4-chlorophenyl)sulfanyl]-2-(tetrahydro-2H-pyran-4-yl)-1,3-oxazol-4-yl}phenyl)ethyl]morpholine] | 1.53
O=C(c1ccc(-c2nc(C3CCOCC3)oc2Sc2ccc(Cl)cc2)cc1)N1CC2CC1CO2 (stereo not shown) [Example B5.18, (4-{5-[(4-chlorophenyl)sulfanyl]-2-(tetrahydro-2H-pyran-4-yl)-1,3-oxazol-4-yl}phenyl)(2-oxa-5-azabicyclo[2.2.1]hept-5-yl)methanone] | 0.375
O=C(c1ccc(-c2nc(C3CCOCC3)oc2Sc2ccc(Cl)cc2)cc1)N1CCC(O)CC1 [Example B5.19, (4-{5-[(4-chlorophenyl)sulfanyl]-2-(tetrahydro-2H-pyran-4-yl)-1,3-oxazol-4-yl}phenyl)(4-hydroxypiperidin-1-yl)methanone] | 2.67

The remaining lines, values ahead:

IC50 [µM] | SMILES
0.314 | CC(C)(O)c1ccc(-c2nc(C3CCOCC3)oc2Sc2ccc(Cl)cn2)cn1 [Example A7.1, 2-(5-{5-[(5-chloropyridin-2-yl)sulfanyl]-2-(tetrahydro-2H-pyran-4-yl)-1,3-oxazol-4-yl}pyridin-2-yl)propan-2-ol]
0.852 | CC(C)(O)c1ccc(-c2nc(C3CCOCC3)oc2Sc2ncc(Cl)cn2)cn1 [Example A7.3, 2-(5-{5-[(5-chloropyrimidin-2-yl)sulfanyl]-2-(tetrahydro-2H-pyran-4-yl)-1,3-oxazol-4-yl}pyridin-2-yl)propan-2-ol]
0.454 | COc1ccc(Sc2oc(C3CCOCC3)nc2-c2ccc(C(C)(C)O)nc2)nc1 [Example A7.4, 2-(5-{5-[(5-methoxypyridin-2-yl)sulfanyl]-2-(tetrahydro-2H-pyran-4-yl)-1,3-oxazol-4-yl}pyridin-2-yl)propan-2-ol]
4.25 | CC(C)(O)c1ccc(-c2nc(C3CCOCC3)oc2Sc2ccc(F)cn2)cn1 [Example A7.5, 2-(5-{5-[(5-fluoropyridin-2-yl)sulfanyl]-2-(tetrahydro-2H-pyran-4-yl)-1,3-oxazol-4-yl}pyridin-2-yl)propan-2-ol]
1.19 | COc1ccc(Sc2oc(C3CCOCC3)nc2-c2ccc(C(C)(C)O)nc2)cn1 [Example A7.8, 2-(5-{5-{(6-methoxypyridin-3-yl)sulfanyl]-2-(tetrahydro-2H-pyran-4-yl)-1,3-oxazol-4-yl}pyridin-2-yl)propan-2-ol]
≥ 10 | CC(C)(O)c1ccc(-c2nc(C3CCOCC3)oc2Sc2cccc(Cl)c2)cn1 [Example A7.9, 2-(5-{5-[(3-chlorophenyl)sulfanyl]-2-(tetrahydro-2H-pyran-4-yl)-1,3-oxazol-4-yl}pyridin-2-yl)propan-2-ol]
≥ 10 | CC(C)(O)c1ccc(-c2nc(C3CCOCC3)oc2Sc2ccccc2Cl)cn1 [Example A7.10, 2-(5-{5-[(2-chlorophenyl)sulfanyl]-2-(tetrahydro-2H-pyran-4-yl)-1,3-oxazol-4-yl}pyridin-2-yl)propan-2-ol]
0.701 | CC(C)(O)c1ccc(-c2nc(C3CCOCC3)oc2Cc2ccc(Cl)cc2)cn1 [Example A7.11, 2-{5-[5-(4-chlorobenzyl)-2-(tetrahydro-2H-pyran-4-yl)-1,3-oxazol-4-yl]pyridin-2-yl}propan-2-ol]
0.29 | CC(C)(O)c1ccc(-c2nc(C3CCOCC3)oc2Oc2ccc(Cl)cc2)cn1 [Example A7.12, 2-{5-[5-(4-chlorophenoxy)-2-(tetrahydro-2H-pyran-4-yl)-1,3-oxazol-4-yl]pyridin-2-yl}propan2-ol]
